In patent publication US9630929B2, “Benzenesulfonamide compounds and their use as therapeutic agents” (XENON PHARMACEUTICALS INC., priority 2011, dated 2017):

What was measured:
Format in all cases: cell-based
NaV1.5 [1] = molecular target: T1, NaV1.5 (Homo sapiens (Human), UniProt Q14524); experiment: Patch voltage clamp electrophysiology (EP), affinity for the inactivated state of Nav1.5
Description: Patch voltage clamp electrophysiology allows for the direct measurement and quantification of block of voltage-gated sodium channels (Nav's), and allows the determination of the time- and voltage-dependence of block which has been interpreted as differential binding to the resting, open, and inactivated states of the sodium channel (Hille, B., Journal of General Physiology (1977), 69: 497-515).
(§1) The following patch voltage clamp electrophysiology studies were performed on representative compounds of the invention using human embryonic kidney cells (HEK), permanently transfected with an expression vector containing the full-length cDNA coding for the desired human sodium channel α-subunit, grown in culture media containing 10% FBS, 1% PSG, and 0.5 mg/mL G418 at 37° C. with 5% CO2. […] Nav1.7 and Nav1.5 cDNAs (NM_002977 and AC137587; SCN5A, respectively) were stably expressed in HEK-293 cells. The β1 subunit was coexpressed only in the Nav1.7 cell line.
(§2) Sodium currents were measured using the patch clamp technique in the whole-cell configuration using either a PatchXpress automated voltage clamp or manually using an Axopatch 200B (Axon Instruments) or Model 2400 (A-M systems) amplifier. […] The pipette was filled with a solution comprised of: 5 mM NaCl, 10 mM CsCl, 120 mM CsF, 0.1 mM CaCl2, 2 mM MgCl2, 10 mM HEPES, 10 mM EGTA; and adjusted to pH 7.2 with CsOH. The external solution had the following composition: 140 mM NaCl, 5 mM KCl, 2 mM CaCl2, 1 mM MgCl2, 10 mM HEPES; and adjusted to pH 7.4 with NaOH. In some studies, the external sodium was reduced by equimolar replacement with choline. Osmolarity in the CsF internal and NaCl external solutions was adjusted to 300 mOsm/kg and 310 mOsm/kg with glucose, respectively. All recordings were performed at ambient temperature in a bath chamber with a volume of 150 μL. Control sodium currents were measured in 0.5% DMSO. Controls and representative compounds of the invention were applied to the recording chamber through a 4-pinch or 8-pinch valve bath perfusion system manufactured by ALA Scientific Instruments.
Currents were recorded at 40 kHz sampling frequency, filtered at […], and stored using a Digidata-1322A analogue/digital interface with the pClamp software (Axon Instruments). Series resistance compensation was applied (60-80%). […] All statistics in this study are given as mean±SD.
(§3) The membrane potential was maintained at a voltage where inactivation of the channel is complete (which was −60 mV for both Nav1.7 and Nav1.5). The voltage is then stepped back to a very negative (Vhold=−150 mV) voltage for 20 ms and then a test pulse is applied to quantify the compound block. […] The percent decrease in sodium current following wash-on of compound was taken as the percent block of sodium channels.
(§4) The Example numbers provided in Table 1 and Table 2 correspond to the Examples herein: […]

NaV1.7 [2] = molecular target: T2, NaV1.7 (Homo sapiens (Human), UniProt Q15858); experiment: Patch voltage clamp electrophysiology (EP), affinity for the inactivated state of Nav1.7; settings: HEK-293 cells expressing human Nav1.7 with β1 subunit
T2 sequence (Q15858 other isoform, or with tags, fused parts or gaps): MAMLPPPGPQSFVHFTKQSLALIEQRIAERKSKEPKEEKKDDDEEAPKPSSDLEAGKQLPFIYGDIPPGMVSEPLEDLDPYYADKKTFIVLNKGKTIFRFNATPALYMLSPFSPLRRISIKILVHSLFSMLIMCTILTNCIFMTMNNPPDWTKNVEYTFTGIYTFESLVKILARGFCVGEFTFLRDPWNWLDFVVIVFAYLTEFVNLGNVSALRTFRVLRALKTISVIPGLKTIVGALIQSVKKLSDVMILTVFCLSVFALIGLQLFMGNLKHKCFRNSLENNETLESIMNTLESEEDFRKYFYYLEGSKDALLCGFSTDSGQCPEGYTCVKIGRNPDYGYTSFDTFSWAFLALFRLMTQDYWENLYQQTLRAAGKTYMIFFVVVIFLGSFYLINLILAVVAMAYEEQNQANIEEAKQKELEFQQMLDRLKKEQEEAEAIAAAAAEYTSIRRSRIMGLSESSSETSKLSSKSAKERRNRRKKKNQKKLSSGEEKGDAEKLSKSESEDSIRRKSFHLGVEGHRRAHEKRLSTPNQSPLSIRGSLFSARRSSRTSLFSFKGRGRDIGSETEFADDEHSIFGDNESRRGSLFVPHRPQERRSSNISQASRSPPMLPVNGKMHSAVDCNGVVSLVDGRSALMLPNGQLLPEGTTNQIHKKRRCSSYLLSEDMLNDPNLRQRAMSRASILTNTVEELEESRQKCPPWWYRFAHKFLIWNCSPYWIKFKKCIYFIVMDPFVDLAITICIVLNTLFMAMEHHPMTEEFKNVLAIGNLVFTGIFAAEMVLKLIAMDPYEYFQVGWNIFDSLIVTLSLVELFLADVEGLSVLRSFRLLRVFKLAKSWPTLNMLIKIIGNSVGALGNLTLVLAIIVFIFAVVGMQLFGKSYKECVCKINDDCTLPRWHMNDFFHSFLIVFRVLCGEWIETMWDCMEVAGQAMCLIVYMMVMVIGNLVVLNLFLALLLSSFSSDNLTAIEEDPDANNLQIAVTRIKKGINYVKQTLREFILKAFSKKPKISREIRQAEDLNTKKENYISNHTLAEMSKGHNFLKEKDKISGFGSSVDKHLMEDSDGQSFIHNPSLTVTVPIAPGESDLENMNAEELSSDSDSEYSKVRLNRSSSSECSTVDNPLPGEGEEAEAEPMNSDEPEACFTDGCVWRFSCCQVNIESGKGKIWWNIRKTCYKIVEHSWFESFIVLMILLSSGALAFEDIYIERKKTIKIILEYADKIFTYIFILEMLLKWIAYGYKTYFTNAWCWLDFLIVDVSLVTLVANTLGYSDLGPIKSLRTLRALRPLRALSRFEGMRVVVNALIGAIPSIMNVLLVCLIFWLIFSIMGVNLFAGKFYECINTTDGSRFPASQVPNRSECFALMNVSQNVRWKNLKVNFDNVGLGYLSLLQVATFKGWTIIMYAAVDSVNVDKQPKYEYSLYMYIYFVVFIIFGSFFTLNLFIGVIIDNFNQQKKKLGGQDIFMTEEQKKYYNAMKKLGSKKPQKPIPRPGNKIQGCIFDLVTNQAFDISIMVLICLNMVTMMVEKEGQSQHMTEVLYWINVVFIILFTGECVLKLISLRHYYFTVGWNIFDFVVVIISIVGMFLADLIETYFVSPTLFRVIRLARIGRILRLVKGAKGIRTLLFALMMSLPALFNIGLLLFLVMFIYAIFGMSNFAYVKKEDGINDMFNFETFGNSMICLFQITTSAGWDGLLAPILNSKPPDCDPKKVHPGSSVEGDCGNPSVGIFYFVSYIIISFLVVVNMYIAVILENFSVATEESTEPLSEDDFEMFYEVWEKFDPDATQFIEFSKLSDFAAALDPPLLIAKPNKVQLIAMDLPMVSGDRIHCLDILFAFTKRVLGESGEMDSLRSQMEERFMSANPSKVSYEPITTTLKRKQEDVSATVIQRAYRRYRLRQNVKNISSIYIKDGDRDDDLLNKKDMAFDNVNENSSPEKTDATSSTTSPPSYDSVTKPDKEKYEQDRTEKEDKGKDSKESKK
T2 sequence (Q07699 19-218 partner): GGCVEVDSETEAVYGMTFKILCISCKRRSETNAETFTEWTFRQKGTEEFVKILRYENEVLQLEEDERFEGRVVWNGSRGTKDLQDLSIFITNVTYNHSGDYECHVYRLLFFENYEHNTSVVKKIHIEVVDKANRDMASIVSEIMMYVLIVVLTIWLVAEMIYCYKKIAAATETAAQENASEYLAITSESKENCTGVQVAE
Description: as §1, §2
Series resistance compensation was applied (60-80%). […] All statistics in this study are given as mean±SD.
as §3, §4

NaV1.7 [3] = molecular target: T2, NaV1.7; experiment: NaV flux assay, inhibition of NaV1.7; settings: NaV flux data, included when EP data is not available
NaV1.5 [4] = molecular target: T1, NaV1.5; experiment: NaV flux assay, inhibition of NaV1.5; settings: NaV flux data, included when EP data is not available
[5] = HEK-293 cells expressing human Nav1.5, read-out: NaV1.5 IC50
[6] = HEK-293 cells expressing human Nav1.5, read-out: NaV1.5 IC50(μM) (class)

T1 sequence (Q14524 whole entry): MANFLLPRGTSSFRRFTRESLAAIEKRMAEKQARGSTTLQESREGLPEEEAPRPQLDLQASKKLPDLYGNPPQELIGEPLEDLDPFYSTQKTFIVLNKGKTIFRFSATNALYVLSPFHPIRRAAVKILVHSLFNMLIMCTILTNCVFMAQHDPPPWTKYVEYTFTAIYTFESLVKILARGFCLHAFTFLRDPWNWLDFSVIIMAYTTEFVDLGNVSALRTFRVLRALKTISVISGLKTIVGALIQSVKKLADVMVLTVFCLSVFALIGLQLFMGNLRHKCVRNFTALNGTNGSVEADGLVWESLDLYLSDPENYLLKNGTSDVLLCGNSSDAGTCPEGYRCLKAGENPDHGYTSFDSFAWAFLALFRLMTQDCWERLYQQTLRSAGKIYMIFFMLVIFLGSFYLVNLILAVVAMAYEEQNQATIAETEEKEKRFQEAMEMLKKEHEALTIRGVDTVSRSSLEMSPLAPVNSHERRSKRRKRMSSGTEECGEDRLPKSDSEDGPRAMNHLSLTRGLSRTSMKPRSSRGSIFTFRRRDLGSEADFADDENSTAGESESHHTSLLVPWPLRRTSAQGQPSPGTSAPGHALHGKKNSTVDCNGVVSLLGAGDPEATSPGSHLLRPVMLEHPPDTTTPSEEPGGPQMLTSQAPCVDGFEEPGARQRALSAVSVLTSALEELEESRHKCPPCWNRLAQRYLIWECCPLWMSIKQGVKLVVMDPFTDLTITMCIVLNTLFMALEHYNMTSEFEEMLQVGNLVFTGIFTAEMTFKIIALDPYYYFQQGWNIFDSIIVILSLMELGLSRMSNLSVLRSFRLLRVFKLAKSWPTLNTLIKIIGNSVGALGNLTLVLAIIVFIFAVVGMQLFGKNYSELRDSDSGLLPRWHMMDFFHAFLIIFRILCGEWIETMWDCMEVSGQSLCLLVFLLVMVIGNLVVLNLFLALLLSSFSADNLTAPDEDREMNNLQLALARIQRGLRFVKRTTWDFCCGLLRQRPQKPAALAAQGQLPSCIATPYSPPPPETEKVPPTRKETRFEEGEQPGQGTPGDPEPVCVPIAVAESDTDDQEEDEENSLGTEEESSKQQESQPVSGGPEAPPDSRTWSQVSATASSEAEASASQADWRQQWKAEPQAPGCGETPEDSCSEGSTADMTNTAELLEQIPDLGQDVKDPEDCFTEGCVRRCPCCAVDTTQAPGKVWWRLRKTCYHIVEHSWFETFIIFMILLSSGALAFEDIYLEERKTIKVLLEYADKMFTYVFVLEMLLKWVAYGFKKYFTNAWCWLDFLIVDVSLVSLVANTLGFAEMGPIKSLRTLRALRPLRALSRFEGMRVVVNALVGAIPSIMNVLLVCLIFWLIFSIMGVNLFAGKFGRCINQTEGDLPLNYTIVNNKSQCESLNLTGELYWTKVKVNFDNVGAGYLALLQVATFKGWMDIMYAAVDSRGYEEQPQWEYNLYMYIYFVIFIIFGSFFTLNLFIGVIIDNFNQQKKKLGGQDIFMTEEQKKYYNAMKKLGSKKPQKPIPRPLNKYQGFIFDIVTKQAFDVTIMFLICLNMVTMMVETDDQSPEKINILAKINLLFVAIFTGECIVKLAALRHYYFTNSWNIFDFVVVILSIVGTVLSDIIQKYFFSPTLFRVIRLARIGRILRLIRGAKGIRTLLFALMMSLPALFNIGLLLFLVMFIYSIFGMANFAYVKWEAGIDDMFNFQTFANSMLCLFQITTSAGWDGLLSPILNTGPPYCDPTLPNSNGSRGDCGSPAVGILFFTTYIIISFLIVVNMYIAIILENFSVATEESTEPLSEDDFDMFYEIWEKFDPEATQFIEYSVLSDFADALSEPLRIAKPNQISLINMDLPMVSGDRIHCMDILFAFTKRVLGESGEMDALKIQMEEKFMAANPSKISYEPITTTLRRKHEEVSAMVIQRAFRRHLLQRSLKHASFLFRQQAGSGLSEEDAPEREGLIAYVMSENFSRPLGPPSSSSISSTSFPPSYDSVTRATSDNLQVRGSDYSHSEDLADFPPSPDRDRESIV

## O=S(=O)(Nc1ncns1)c1ccc(OC[C@@H]2CNCC[C@H]2c2ccc(Cl)cc2)c(F)c1 (relative stereo) [Example 59, 4-((trans-4-(4-chlorophenyl)piperidin-3-yl)methoxy)-3-fluoro-N-(1,2,4-thiadiazol-5-yl)benzenesulfonamide]
NaV1.5 [1]; [5]
  IC50: > 10 µM
NaV1.5 [1]; [6]
  IC50: > 10 µM
NaV1.7 [2]; read-out: NaV1.7 (IC50 class)
  IC50: < 100 nM
NaV1.7 [2]; read-out: NaV1.7 IC50
  IC50: 8.6 nM

## O=S(=O)(Nc1ncc(Cl)s1)c1cc(F)c(OC[C@@H]2CNCC[C@H]2c2ccc(F)c(F)c2)cc1F (relative stereo) [Example 61, N-(5-chlorothiazol-2-yl)-4-((trans-4-(3,4-difluorophenyl)piperidin-3-yl)methoxy)-2,5-difluorobenzenesulfonamide]
NaV1.5 [1]; [5]
  IC50: > 10 µM
NaV1.5 [1]; [6]
  IC50: > 10 µM
NaV1.7 [2]; read-out: NaV1.7 (IC50 class)
  IC50: < 100 nM
NaV1.7 [2]; read-out: NaV1.7 IC50
  IC50: 21.6 nM

## CN1CC[C@@H](c2ccc(Cl)cc2)[C@H](COc2cc(F)c(S(=O)(=O)Nc3ncns3)cc2F)C1 (relative stereo) [Example 70, 4-((trans-4-(4-chlorophenyl)-1-methylpiperidin-3-yl)methoxy)-2,5-difluoro-N-(1,2,4-thiadiazol-5-yl)benzenesulfonamide]
NaV1.5 [1]; [5]
  IC50: > 10 µM
NaV1.5 [1]; [6]
  IC50: > 10 µM
NaV1.7 [2]; read-out: NaV1.7 (IC50 class)
  IC50: < 100 nM
NaV1.7 [2]; read-out: NaV1.7 IC50
  IC50: 12 nM

## CN(c1ncns1)S(=O)(=O)c1cc(F)c(OC[C@@H]2CNCC[C@H]2c2ccc(Cl)cc2)cc1F (relative stereo) [Example 79, 4-((trans-4-(4-chlorophenyl)piperidin-3-yl)methoxy)-2,5-difluoro-N-methyl-N-(1,2,4-thiadiazol-5-yl)benzenesulfonamide]
NaV1.7 [3]
  IC50: 7880 nM
NaV1.5 [4]
  IC50: > 10000 nM

## O=C1C[C@@H](c2ccc(F)cc2)[C@H](COc2cc(F)c(S(=O)(=O)Nc3ncns3)cc2F)CN1 (relative stereo) [Example 87, 2,5-difluoro-4-((trans-4-(4-fluorophenyl)-6-oxopiperidin-3-yl)methoxy)-N-(1,2,4-thiadiazol-5-yl)benzenesulfonamide]
NaV1.5 [1]; [5]
  IC50: > 10 µM
NaV1.5 [1]; [6]
  IC50: > 10 µM
NaV1.7 [2]; read-out: NaV1.7 (IC50 class)
  IC50: < 100 nM
NaV1.7 [2]; read-out: NaV1.7 IC50
  IC50: 82 nM

## O=S(=O)(Nc1ncns1)c1cc(F)c(OC[C@@H]2CN(CC(F)(F)F)CC[C@H]2c2ccc(Cl)cc2)cc1F (relative stereo) [Example 88, 4-((trans-4-(4-chlorophenyl)-1-(2,2,2-trifluoroethyl)piperidin-3-yl)methoxy)-2,5-difluoro-N-(1,2,4-thiadiazol-5-yl)benzenesulfonamide]
NaV1.5 [1]; [5]
  IC50: > 10 µM
NaV1.5 [1]; [6]
  IC50: > 10 µM
NaV1.7 [2]; read-out: NaV1.7 (IC50 class)
  IC50: 100 to 1000 nM
NaV1.7 [2]; read-out: NaV1.7 IC50
  IC50: 130 nM

## NC(=O)N1CC[C@@H](c2ccc(F)c(F)c2)[C@H](COc2cc(F)c(S(=O)(=O)Nc3ncc(Cl)s3)cc2F)C1 (relative stereo) [Example 89, trans-3-((4-(N-(5-chlorothiazol-2-yl)sulfamoyl)-2,5-difluorophenoxy)methyl)-4-(3,4-difluorophenyl)piperidine-1-carboxamide]
NaV1.5 [1]; [5]
  IC50: > 10 µM
NaV1.5 [1]; [6]
  IC50: > 10 µM
NaV1.7 [2]; read-out: NaV1.7 (IC50 class)
  IC50: 100 to 1000 nM
NaV1.7 [2]; read-out: NaV1.7 IC50
  IC50: 436 nM

## O=S(=O)(Nc1ncns1)c1cc(F)c(OC[C@@H]2CNCC[C@H]2c2ccc(Cl)c(Cl)c2)cc1F (relative stereo) [Example 92, 4-((trans-4-(3,4-dichlorophenyl)piperidin-3-yl)methoxy)-2,5-difluoro-N-(1,2,4-thiadiazol-5-yl)benzenesulfonamide]
NaV1.7 [2]; read-out: NaV1.7 (IC50 class)
  IC50: < 100 nM
NaV1.7 [2]; read-out: NaV1.7 IC50
  IC50: 0.8 nM
NaV1.5 [4]
  IC50: > 10000 nM

## COc1ccc([C@@H]2CCNC[C@H]2COc2cc(F)c(S(=O)(=O)Nc3ncns3)cc2F)cc1 (relative stereo) [Example 94, 2,5-difluoro-4-((trans-4-(4-methoxyphenyl)piperidin-3-yl)methoxy)-N-(1,2,4-thiadiazol-5-yl)benzenesulfonamide]
NaV1.7 [3]
  IC50: 132 nM
NaV1.5 [4]
  IC50: > 10000 nM

## CC(C)CNS(=O)(=O)c1cc(F)c(OC[C@@H]2CNCC[C@H]2c2ccc(Cl)cc2)cc1F (relative stereo) [Example 96, 4-((trans-4-(4-chlorophenyl)piperidin-3-yl)methoxy)-2,5-difluoro-N-isobutylbenzenesulfonamide]
NaV1.7 [3]
  IC50: 4900 nM
NaV1.5 [4]
  IC50: 7560 nM

## O=S(=O)(Nc1ncns1)c1cc(F)c(OC[C@@H]2CNCC[C@H]2c2ccc(Cl)c(F)c2)cc1F (relative stereo) [Example 97, 4-((trans-4-(4-chloro-3-fluorophenyl)piperidin-3-yl)methoxy)-2,5-difluoro-N-(1,2,4-thiadiazol-5-yl)benzenesulfonamide]
NaV1.5 [4]
  IC50: > 10000 nM

## O=S(=O)(c1cc(F)c(OC[C@@H]2CNCC[C@H]2c2ccc(F)cc2)cc1F)n1cccn1 (relative stereo) [Example 98, trans-3-((4-((1H-pyrazol-1-yl)sulfonyl)-2,5-difluorophenoxy)methyl)-4-(4-fluorophenyl)piperidine]
NaV1.7 [3]
  IC50: 7220 nM
NaV1.5 [4]
  IC50: 7530 nM

## Cc1ccc([C@@H]2CCNC[C@H]2COc2cc(F)c(S(=O)(=O)Nc3ncns3)cc2F)cc1 (relative stereo) [Example 100, 2,5-difluoro-N-(1,2,4-thiadiazol-5-yl)-4-((trans-4-(p-tolyl)piperidin-3-yl)methoxy)benzenesulfonamide]
NaV1.7 [3]
  IC50: 393 nM
NaV1.5 [4]
  IC50: > 10000 nM

## O=S(=O)(Nc1ncns1)c1cc(F)c(OC[C@@H]2CNCC[C@H]2c2cc(F)c(F)cc2F)cc1F (relative stereo) [Example 106, 2,5-difluoro-N-(1,2,4-thiadiazol-5-yl)-4-((trans-4-(2,4,5-trifluorophenyl)piperidin-3-yl)methoxy)benzenesulfonamide]
NaV1.7 [3]
  IC50: 181 nM
NaV1.5 [4]
  IC50: > 10000 nM

## O=S(=O)(Nc1ncns1)c1cc(F)c(OC[C@@H]2CNCC[C@H]2c2ccc(F)c(C(F)(F)F)c2)cc1F (relative stereo) [Example 107, 2,5-difluoro-4-((trans-4-(4-fluoro-3-(trifluoromethyl)phenyl)piperidin-3-yl)methoxy)-N-(1,2,4-thiadiazol-5-yl)benzenesulfonamide]
NaV1.7 [3]
  IC50: 38 nM
NaV1.5 [4]
  IC50: > 10000 nM

## O=S(=O)(Nc1ncns1)c1cc(F)c(OC[C@@H]2CNCC[C@H]2c2ccc(F)c(C(F)F)c2)cc1F (relative stereo) [Example 108, 4-((trans-4-(3-(difluoromethyl)-4-fluorophenyl)piperidin-3-yl)methoxy)-2,5-difluoro-N-(1,2,4-thiadiazol-5-yl)benzenesulfonamide]
NaV1.7 [3]
  IC50: 71 nM
NaV1.5 [4]
  IC50: > 10000 nM

## O=S(=O)(Nc1ncns1)c1cc(F)c(OCC2(F)CNCCC2c2ccc(F)cc2)cc1F (centres unmarked) [Example 47, 2,5-difluoro-4-((3-fluoro-4-(4-fluorophenyl)piperidin-3-yl)methoxy)-N-(1,2,4-thiadiazol-5-yl)benzenesulfonamide]
NaV1.5 [1]; [5]
  IC50: > 10 µM
NaV1.5 [1]; [6]
  IC50: > 10 µM
NaV1.7 [2]; read-out: NaV1.7 (IC50 class)
  IC50: < 100 nM
NaV1.7 [2]; read-out: NaV1.7 IC50
  IC50: 50.7 nM

## CN1CC[C@H](c2ccc(Cl)cc2)[C@@H](COc2cc(F)c(S(=O)(=O)Nc3ncns3)cc2F)C1 [Example 85, 4-(((3R,4S)-4-(4-chlorophenyl)-1-methylpiperidin-3-yl)methoxy)-2,5-difluoro-N-(1,2,4-thiadiazol-5-yl)benzenesulfonamide]
NaV1.5 [1]; [5]
  IC50: > 10 µM
NaV1.5 [1]; [6]
  IC50: > 10 µM
NaV1.7 [2]; read-out: NaV1.7 (IC50 class)
  IC50: < 100 nM
NaV1.7 [2]; read-out: NaV1.7 IC50
  IC50: 4.8 nM

## CN1CC[C@@H](c2ccc(Cl)cc2)[C@H](COc2cc(F)c(S(=O)(=O)Nc3ncns3)cc2F)C1 [Example 86, 4-(((3S,4R)-4-(4-chlorophenyl)-1-methylpiperidin-3-yl)methoxy)-2,5-difluoro-N-(1,2,4-thiadiazol-5-yl)benzenesulfonamide]
NaV1.5 [1]; [5]
  IC50: > 10 µM
NaV1.5 [1]; [6]
  IC50: > 10 µM
NaV1.7 [2]; read-out: NaV1.7 (IC50 class)
  IC50: 100 to 1000 nM
NaV1.7 [2]; read-out: NaV1.7 IC50
  IC50: 331 nM
